Test results as given in ChEMBL document CHEMBL1136440, “Design and synthesis of novel RXR-selective modulators with improved pharmacological profile” (Bioorg Med Chem Lett, 2003).
Several values for one entry are separate records, joined by “and”; a condition that tells them apart may be missing. Identical values can stand only once.

Columns and labels:
[1] = target: T1, Retinoic acid receptor RXR-alpha (Homo sapiens, UniProt P19793); assay: In vitro antagonist activity against RXR alpha in CV-1 cells; type: functional, cell-based, Cercopithecidae
T1 sequence (P19793 whole entry): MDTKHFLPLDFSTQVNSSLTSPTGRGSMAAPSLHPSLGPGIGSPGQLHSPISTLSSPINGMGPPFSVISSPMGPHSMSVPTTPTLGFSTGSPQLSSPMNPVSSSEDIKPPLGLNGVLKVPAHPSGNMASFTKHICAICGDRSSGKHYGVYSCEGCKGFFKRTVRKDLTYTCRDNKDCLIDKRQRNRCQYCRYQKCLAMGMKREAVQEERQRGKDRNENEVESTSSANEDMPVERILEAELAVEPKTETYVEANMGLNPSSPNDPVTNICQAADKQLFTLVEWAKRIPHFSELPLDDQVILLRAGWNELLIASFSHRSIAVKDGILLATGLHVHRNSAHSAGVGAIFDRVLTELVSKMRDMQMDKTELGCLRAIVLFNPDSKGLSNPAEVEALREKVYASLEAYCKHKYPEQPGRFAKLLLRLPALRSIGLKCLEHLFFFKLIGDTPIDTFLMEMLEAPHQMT

[2] = target: T1, Retinoic acid receptor RXR-alpha; assay: biochemical
Description: Binding affinity against RXR alpha receptor using [3H]9-cis-RA as radioligand in CV-1 cells

[3] = target: T2, Retinoic acid receptor gamma (Homo sapiens, UniProt P13631); assay: Binding affinity against RAR gamma receptor using [3H]ATRA as radioligand in CV-1 cells; type: cell-based, Cercopithecidae
T2 sequence (P13631 whole entry): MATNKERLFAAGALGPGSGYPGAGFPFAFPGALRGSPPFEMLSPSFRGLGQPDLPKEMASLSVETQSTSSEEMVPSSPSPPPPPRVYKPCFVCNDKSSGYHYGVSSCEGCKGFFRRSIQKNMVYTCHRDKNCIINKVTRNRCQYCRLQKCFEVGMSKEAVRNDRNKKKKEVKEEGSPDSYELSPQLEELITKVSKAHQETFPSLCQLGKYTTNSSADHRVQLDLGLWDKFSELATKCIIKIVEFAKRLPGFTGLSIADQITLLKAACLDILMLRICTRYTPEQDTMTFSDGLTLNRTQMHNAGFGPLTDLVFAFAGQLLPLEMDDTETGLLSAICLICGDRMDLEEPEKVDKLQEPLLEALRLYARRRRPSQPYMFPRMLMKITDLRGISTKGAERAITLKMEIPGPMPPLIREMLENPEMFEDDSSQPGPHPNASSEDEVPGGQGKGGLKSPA

[4] = target: T3, Retinoic acid receptor alpha (Homo sapiens) (UniProt P10276); assay: Agonist synergy against RAR alpha was tested along with 3 nM TTNPB; type: functional; details: Cercopithecidae
T3 sequence (whole entry): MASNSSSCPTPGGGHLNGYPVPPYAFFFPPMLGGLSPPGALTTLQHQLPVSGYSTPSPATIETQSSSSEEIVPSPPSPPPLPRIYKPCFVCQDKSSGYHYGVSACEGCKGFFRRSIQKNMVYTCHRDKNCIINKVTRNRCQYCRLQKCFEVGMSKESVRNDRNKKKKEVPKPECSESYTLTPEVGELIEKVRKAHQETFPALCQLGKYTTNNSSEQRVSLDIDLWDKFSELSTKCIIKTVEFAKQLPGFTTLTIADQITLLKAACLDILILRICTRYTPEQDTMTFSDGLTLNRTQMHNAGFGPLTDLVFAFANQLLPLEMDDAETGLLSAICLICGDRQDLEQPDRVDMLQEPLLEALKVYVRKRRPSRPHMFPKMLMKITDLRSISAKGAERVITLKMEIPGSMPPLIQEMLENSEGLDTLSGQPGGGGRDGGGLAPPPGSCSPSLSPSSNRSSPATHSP

[5] = target: T4, Retinoic acid receptor beta (Homo sapiens, UniProt P10826); assay: Binding affinity against RAR beta receptor using [3H]ATRA as radioligand in CV-1 cells; type: cell-based, Cercopithecidae
T4 sequence (P10826 whole entry): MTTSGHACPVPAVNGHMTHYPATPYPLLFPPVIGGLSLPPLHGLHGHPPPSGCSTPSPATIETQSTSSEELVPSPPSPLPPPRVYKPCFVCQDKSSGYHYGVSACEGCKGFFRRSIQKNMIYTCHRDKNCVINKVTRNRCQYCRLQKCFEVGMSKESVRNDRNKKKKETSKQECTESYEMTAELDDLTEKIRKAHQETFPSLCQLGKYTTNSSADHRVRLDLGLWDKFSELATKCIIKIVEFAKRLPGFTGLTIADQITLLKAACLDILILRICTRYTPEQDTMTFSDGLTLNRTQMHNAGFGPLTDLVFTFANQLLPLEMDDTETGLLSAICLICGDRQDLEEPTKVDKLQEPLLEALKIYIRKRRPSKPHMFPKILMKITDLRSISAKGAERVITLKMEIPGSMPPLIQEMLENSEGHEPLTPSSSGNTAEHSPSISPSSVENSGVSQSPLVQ

[6] = target: T5, Retinoic acid receptor alpha (Homo sapiens, UniProt P10276); assay: Binding affinity against RAR alpha receptor using [3H]ATRA as radioligand in CV-1 cells; type: cell-based, Cercopithecidae
T5 sequence (P10276 whole entry): T3 sequence (whole entry)

[7] = target: T6, Peroxisome proliferator-activated receptor gamma (Homo sapiens, UniProt P37231)
T6 sequence (P37231 whole entry): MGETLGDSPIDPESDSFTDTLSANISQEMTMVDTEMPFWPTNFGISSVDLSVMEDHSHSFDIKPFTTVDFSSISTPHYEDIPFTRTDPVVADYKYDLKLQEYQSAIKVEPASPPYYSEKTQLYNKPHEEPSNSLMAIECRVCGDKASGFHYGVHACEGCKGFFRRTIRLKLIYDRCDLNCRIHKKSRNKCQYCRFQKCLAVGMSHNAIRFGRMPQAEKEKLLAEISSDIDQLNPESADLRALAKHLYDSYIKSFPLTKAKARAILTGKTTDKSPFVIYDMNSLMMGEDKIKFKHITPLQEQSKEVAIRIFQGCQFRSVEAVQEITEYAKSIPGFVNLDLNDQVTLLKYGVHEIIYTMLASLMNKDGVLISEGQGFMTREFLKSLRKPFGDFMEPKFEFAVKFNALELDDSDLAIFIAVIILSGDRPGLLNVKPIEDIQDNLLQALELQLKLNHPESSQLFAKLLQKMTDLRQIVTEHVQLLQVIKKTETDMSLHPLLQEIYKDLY
Description: In vitro agonist efficacy against PPAR gamma along with 100 nM BRL-49653

[8] = target: T7, Retinoic acid receptor RXR-beta (Homo sapiens, UniProt P28702); assay: Displacement of [3H]9-cis-RA from RXR beta receptor in CV-1 cells; type: cell-based, Cercopithecidae
T7 sequence (P28702 whole entry): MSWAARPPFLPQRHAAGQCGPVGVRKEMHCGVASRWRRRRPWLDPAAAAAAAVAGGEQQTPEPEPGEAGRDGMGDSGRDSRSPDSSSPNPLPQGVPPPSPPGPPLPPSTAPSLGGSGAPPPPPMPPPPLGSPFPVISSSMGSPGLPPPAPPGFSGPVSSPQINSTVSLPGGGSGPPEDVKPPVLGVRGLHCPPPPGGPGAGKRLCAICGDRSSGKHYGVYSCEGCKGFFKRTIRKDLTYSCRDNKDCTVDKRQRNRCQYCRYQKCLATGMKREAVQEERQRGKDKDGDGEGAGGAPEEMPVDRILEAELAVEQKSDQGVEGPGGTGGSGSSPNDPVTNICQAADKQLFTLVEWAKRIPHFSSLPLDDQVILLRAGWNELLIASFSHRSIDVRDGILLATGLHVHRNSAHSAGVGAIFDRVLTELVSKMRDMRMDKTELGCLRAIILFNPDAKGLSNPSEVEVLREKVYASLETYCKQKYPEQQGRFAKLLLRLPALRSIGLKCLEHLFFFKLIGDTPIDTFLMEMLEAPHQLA

[9] = target: T6, Peroxisome proliferator-activated receptor gamma; remark: listed apart in the source
Description: In vitro agonistic activity against PPAR gamma along with 100 nM BRL-49653

[10] = target: T8, Retinoic acid receptor RXR-gamma (Homo sapiens, UniProt P48443); assay: Binding affinity against RXR gamma receptor using [3H]9-cis-RA as radioligand in CV-1 cells; type: cell-based, Cercopithecidae
T8 sequence (P48443 whole entry): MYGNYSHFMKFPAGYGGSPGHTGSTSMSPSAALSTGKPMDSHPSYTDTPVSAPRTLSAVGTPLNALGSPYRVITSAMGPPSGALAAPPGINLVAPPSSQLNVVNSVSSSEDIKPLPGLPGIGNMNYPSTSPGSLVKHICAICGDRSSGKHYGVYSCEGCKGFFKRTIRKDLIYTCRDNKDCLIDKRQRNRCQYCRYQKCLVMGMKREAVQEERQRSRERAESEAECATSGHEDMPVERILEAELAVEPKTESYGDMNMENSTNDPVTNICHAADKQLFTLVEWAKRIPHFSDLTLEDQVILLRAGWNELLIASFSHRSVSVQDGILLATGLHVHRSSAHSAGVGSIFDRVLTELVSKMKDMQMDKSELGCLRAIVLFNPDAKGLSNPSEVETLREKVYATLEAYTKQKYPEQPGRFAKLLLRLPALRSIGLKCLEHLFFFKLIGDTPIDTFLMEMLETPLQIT

[11] = Tmax value in IRC mice; type: ADME, organism-based; details: mouse, in vivo
[12] = Area under curve at 0-8 hr in IRC mice after peroral administration; type: ADME, organism-based; set-up: time < 8 hr, route oral; details: mouse, in vivo, po
[13] = Cmax value in IRC mice; type: ADME, organism-based; details: mouse, in vivo

Row | SMILES | IC50 [1] | Ki [2] | Ki [3] | Synergy [4] | Ki [5] | Ki [6] | EC50 [7] | Ki [8] | EC50 [9] | Ki [10] | Tmax [11] | AUC(0-t) at 8 h [12] | Cmax [13]
1 | C/C(=C/C=C/C(C)=C/C(=O)O)c1cc(-c2cccc(F)c2)cc(C(C)C)c1OCC(F)F | 3.9 nM | 1 nM | > 10000 nM | 1.6 nM | 3600 nM | > 10000 nM | 36 nM | 7.4 nM | 0.8 nM | 2.9 nM |  |  | 
2 | CCCCOc1c(\C(C)=C/C=C/C(C)=C/C(=O)O)cc(C(F)(F)C(F)(F)F)cc1C(C)C | 4 nM | 21.4 nM | > 10000 nM | 1.2 nM | 2270 nM | 2750 nM | 71 nM | 8.2 nM | 7.4 nM | 45.7 nM |  |  | 
3 | CC(/C=C/[C@@H]1C[C@]1(C)c1ccc2c(c1)C(C)(C)CCC2(C)C)=C\C(=O)O [IRX-4204] |  |  |  | 1.9 nM |  |  | 54 nM |  | 8.6 nM |  |  |  | 
4 | Cc1cc2c(cc1C1(c3ccc(C(=O)O)cn3)CC1)C(C)(C)CCC2(C)C |  |  |  | 6.9 nM |  |  |  | 75 nM |  | 12 nM |  |  | 
5 | CCCOc1c(\C(C)=C/C=C/C(C)=C/C(=O)O)cc(C(F)(F)C(F)(F)F)cc1C(C)C | 5.1 nM | 25.6 nM | > 1000 nM | 1.4 nM | 1980 nM | 2500 nM | 59 nM | 17.2 nM | 2.7 nM | 27.6 nM |  |  | 
6 | C/C(=C/C=C/C(C)=C/C(=O)O)c1cc(-c2cccs2)cc(C(C)C)c1OCC(F)F | 1.9 nM | 0.8 nM | > 10000 nM | 1.4 nM | 2110 nM | 4550 nM | 15 nM | 3.9 nM | 4.7 nM | 5.6 nM |  |  | 
7 | CC(/C=C/C(F)=C(/C)c1cc(C(C)(C)C)cc(C(C)(C)C)c1OCC(F)(F)F)=C\C(=O)O | 7.2 nM | 4.1 nM | > 10000 nM | 1.5 nM | 6010 nM | 4660 nM | 30 nM | 15.5 nM | 12.2 nM | 12.4 nM |  |  | 
8 | C/C(=C/C=C/C(C)=C/C(=O)O)c1cc(C(C)C)cc(-c2ccccc2)c1OCC(F)F | 57.9 nM | 6.1 nM | > 10000 nM | 1 nM | 2610 nM | 4660 nM | 78 nM | 12.3 nM | 16.3 nM | 22.5 nM |  |  | 
9 | CCCCOc1c(\C(C)=C(F)/C=C/C(C)=C/C(=O)O)cc(C(C)C)cc1C(C)C | 4.7 nM | 4.4 nM | > 10000 nM | 1.5 nM | 4620 nM | 3730 nM | 47 nM | 24.4 nM | 4.1 nM | 27.8 nM |  |  | 

Second part, the compound after the results:

Row | IC50 [1] | Ki [2] | Ki [3] | Synergy [4] | Ki [5] | Ki [6] | EC50 [7] | Ki [8] | EC50 [9] | Ki [10] | Tmax [11] | AUC(0-t) at 8 h [12] | Cmax [13] | SMILES
10 | 13.7 nM | 28.7 nM | > 10000 nM | 1.5 nM | 5330 nM | 6590 nM | 51 nM | 5.2 nM | 2.7 nM | 40.3 nM |  |  |  | CCC(C)(C)c1cc(\C(C)=C(F)/C=C/C(C)=C/C(=O)O)c(OCC(F)F)c(C(C)(C)CC)c1
11 | 4.6 nM | 2.6 nM | > 10000 nM | 0.8 nM | 1960 nM | > 10000 nM | 40 nM | 2.4 nM | 2.7 nM | 2.8 nM |  |  |  | C/C(=C/C=C/C(C)=C/C(=O)O)c1cc(-c2cc(F)cc(F)c2)cc(C(C)C)c1OCC(F)F
12 | 2.2 nM | 0.8 nM | > 10000 nM | 1.1 nM | 2110 nM | 4550 nM | 32 nM | 3.9 nM | 1.3 nM | 5.6 nM |  |  |  | C/C(=C/C=C/C(C)=C/C(=O)O)c1cc(-c2ccc(F)cc2)cc(C(C)C)c1OCC(F)F
13 |  |  | > 9510 nM |  | 9510 nM | 54 nM |  | 4 nM |  | 84 nM | 1 h | 3800 ng·h/mL | 760 ng/mL and 1.81 µM | C/C(=C/C=C/C(C)=C/C(=O)O)c1cc(C(C)(C)C)cc(C(C)(C)C)c1OCC(F)F
